The source of these data is patent US20230365537A1, “POLO LIKE KINASE 4 INHIBITORS” (ORIC Pharmaceuticals, Inc., priority 2021, published 2023).

One assay has as its target human recombinant PLK4 (Homo sapiens (Human), UniProt O00444). In words: PLK4 Biochemical Assay (ADP-Glo). The conditions noted are these: 0.5 nM PLK4, 8.0 µM ATP, 4.7 µM MBP, 6 hours at RT. As for the experimental part:
(§1) Activity of human recombinant PLK4 (ThermoFisher, cat #PV6396) was measured by quantification of adenosine diphosphate (ADP) using the ADP-Glo Kinase Assay Kit (Promega, cat #V9102). […] 5 µL of 1.0 nM PLK4 protein in assay buffer (50 mM HEPES, pH 7.5, 0.01% Brij-35, 0.01% BSA, 10 mM MgCl2, 1 mM EGTA, 1 mM DTT) was added to the plates. Test compounds and PLK4 were incubated for 15 minutes at room temperature (RT). […] Reactions were stopped and the remaining ATP depleted by adding 10 µL of ADP-Glo reagent (Promega, cat#V912B) and incubating for 40 minutes at RT. The simultaneous conversion of the remaining ADP to ATP and measurement of the newly synthesized ATP was achieved by addition of 20 µL Kinase Detection reagent (Promega, cat #V914B), incubation for 30 min at RT, and luminescence detection using the EnVision plate reader (PerkinElmer). […] The IC50 values reported in Table 2 were determined using four parameter non-linear regression curve fit.
(ADP-Glo first removes unused ATP, then detects ADP through luciferase.)

In assay [1] the target is human recombinant Aurora A (Homo sapiens (Human), UniProt O14965). The assay can be described thus: Aurora A Kinase Biochemical Assay (ADP-Glo). The following applies: ratio of Aurora A IC50 to PLK4 IC50 (selectivity). As for the experimental part: as §1, with “Aurora A” for “PLK4”, “#PR5935A)” for “#PV6396)”, “5.0” for “1.0”, “Aurora A” for “PLK4 protein”, “10uL” for “10 µL”

In assay [2] the target is human recombinant Aurora B (Homo sapiens (Human), UniProt Q96GD4). In words: Aurora B Kinase Biochemical Assay (ADP-Glo). The following applies: ratio of Aurora B IC50 to PLK4 IC50 (selectivity). The protocol: as §1, with “Aurora B” for “PLK4”, “#PR9210B)” for “#PV6396)”, “20” for “1.0”, “Aurora B” for “PLK4 protein”, “10uL” for “10 µL”
Chain of human recombinant Aurora B (Q96GD4 whole entry): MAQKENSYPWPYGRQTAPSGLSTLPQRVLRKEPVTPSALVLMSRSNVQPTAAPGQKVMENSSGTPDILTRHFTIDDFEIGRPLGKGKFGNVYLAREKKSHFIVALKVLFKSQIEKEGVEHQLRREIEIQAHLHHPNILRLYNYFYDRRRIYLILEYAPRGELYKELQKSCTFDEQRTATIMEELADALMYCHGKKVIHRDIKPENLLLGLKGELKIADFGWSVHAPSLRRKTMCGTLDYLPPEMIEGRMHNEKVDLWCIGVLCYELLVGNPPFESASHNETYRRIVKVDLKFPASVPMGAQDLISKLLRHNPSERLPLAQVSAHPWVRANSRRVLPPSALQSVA

Chain of human recombinant Aurora A (O14965 whole entry): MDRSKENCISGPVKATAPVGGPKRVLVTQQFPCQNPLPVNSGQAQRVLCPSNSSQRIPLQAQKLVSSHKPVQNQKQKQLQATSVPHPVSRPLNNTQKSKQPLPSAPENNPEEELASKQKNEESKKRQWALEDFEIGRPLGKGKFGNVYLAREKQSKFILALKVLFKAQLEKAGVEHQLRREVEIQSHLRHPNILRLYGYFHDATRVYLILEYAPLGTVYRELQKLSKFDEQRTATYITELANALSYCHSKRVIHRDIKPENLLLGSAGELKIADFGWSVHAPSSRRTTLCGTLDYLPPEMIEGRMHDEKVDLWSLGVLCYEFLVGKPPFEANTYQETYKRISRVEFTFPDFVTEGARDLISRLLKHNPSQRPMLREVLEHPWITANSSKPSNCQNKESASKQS
Chain of human recombinant PLK4 (O00444 whole entry): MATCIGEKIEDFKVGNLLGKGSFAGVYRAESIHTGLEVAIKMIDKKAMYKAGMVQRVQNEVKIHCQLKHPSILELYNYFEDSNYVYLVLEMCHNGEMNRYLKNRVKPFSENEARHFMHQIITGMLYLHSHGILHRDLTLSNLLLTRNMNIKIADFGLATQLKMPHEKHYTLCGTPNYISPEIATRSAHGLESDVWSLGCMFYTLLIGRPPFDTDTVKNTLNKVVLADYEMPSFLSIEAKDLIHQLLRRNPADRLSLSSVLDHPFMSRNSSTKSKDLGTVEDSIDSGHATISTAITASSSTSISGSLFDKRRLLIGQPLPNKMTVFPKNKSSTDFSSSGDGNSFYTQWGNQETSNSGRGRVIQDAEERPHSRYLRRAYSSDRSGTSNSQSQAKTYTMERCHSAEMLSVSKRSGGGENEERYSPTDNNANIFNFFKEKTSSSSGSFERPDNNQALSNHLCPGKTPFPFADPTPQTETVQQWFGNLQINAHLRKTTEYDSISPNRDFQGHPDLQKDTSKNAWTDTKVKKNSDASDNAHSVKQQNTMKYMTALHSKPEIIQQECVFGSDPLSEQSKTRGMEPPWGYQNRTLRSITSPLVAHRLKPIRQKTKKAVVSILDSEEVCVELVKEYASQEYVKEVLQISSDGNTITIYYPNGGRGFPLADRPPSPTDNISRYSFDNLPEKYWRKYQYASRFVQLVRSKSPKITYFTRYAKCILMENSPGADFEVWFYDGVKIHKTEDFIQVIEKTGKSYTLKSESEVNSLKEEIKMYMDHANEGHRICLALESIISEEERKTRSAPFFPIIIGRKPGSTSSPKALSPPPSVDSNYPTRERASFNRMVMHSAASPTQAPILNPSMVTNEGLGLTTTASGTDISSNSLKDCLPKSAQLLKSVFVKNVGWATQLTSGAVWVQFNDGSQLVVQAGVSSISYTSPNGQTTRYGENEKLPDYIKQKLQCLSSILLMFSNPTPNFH

One may read the IC50 as the midpoint of a concentration-inhibition curve. As to `COc1ccc2c(c1)[C@]1(C[C@H]1c1ccc3c(Nc4cc(C(C)O)cnc4OC)n[nH]c3c1)C(=O)N2` (mixture of isomers) [Example 271, (1R,2S)-2-(3-{[5-(1-hydroxyethyl)-2-methoxypyridin-3-yl]amino}-1H-indazol-6-yl)-5′-methoxyspiro[cyclopropane-1,3′-indol]-2′(1′H)-one], at human recombinant PLK4, the IC50 is 6.04 nM. For the same compound, the “[Aurora A IC50 (nM)]/[PLK4 IC50 (nM)]” value in assay [1] is on record as 825.7199. In assay [2], the “[Aurora B IC50 (nM)]/[PLK4 IC50 (nM)]” value was 492.8831.

As to `COc1ccc2c(c1)[C@]1(C[C@H]1c1ccc3c(Nc4ncncc4OC)n[nH]c3c1)C(=O)N2` (racemic) [Example 1, racemic-5′-Methoxy-2-{3-[(5-methoxypyrimidin-4-yl)amino]-1H-indazol-6-yl}spiro[cyclopropane-1,3′-indol]-2′(1′H)-one], the IC50 at human recombinant PLK4 amounted to 3.5 nM.

For `COc1ccc2c(c1)[C@]1(C[C@H]1c1ccc3c(Nc4ncncc4C)n[nH]c3c1)C(=O)N2` (racemic) [Example 2, racemic-5′-Methoxy-2-{3-[(5-methylpyrimidin-4-yl)amino]-1H-indazol-6-yl)spiro[cydopropane-1,3′-indol]-2′(1′H)-one], the IC50 on human recombinant PLK4 was 29.3 nM. Also, the “[Aurora A IC50 (nM)]/[PLK4 IC50 (nM)]” value in assay [1] was found to be 318.03. Also, the “[Aurora B IC50 (nM)]/[PLK4 IC50 (nM)]” value in assay [2] turned out to be 15.6544. For the compound `COc1ccc2c(c1)[C@]1(C[C@H]1c1ccc3c(Nc4ncncc4Cl)n[nH]c3c1)C(=O)N2` (racemic) [Example 3, racemic-2-{3-[(5-Chloropyrimidin-4-yl)amino]-1H-indazol-6-yl}-5′-methoxyspiro[cydopropane-13′-indol]-2′(1′H)-one], the IC50 on human recombinant PLK4 amounted to 9.95 nM. For the compound `COc1ccc2c(c1)[C@]1(C[C@H]1c1ccc3c(Nc4nccc5c4OC[C@H]5CO)n[nH]c3c1)C(=O)N2` (single isomer, unassigned) [Example 34], on human recombinant PLK4, the IC50 was found to be 3.21 nM. In addition, the “[Aurora A IC50 (nM)]/[PLK4 IC50 (nM)]” value in assay [1] is reported as 893.3126. In assay [2], the “[Aurora B IC50 (nM)]/[PLK4 IC50 (nM)]” value is 19.96.

Take `COc1ccc2c(c1)[C@]1(C[C@H]1c1ccc3c(Nc4nc(C5CCOC5)ncc4OC)n[nH]c3c1)C(=O)N2` (single isomer, unassigned) [Example 200]: the IC50 on human recombinant PLK4 was 3.26 nM. Further, the “[Aurora A IC50 (nM)]/[PLK4 IC50 (nM)]” value in assay [1] is given as 906.0197. In addition, in assay [2], the “[Aurora B IC50 (nM)]/[PLK4 IC50 (nM)]” value stood at 523.3415.

Regarding `COc1ccc2c(c1)[C@]1(C[C@H]1c1ccc3c(Nc4nc(C)nc5c4C(C)SC5)n[nH]c3c1)C(=O)N2` (single isomer, unassigned) [Example 211], the IC50 on human recombinant PLK4 was found to be 8.66 nM. In addition, the “[Aurora A IC50 (nM)]/[PLK4 IC50 (nM)]” value in assay [1] stood at 531.9935. Besides, the “[Aurora B IC50 (nM)]/[PLK4 IC50 (nM)]” value in assay [2] came to 218.4107. Consider `COc1ccc2c(c1)[C@]1(C[C@H]1c1ccc3c(Nc4cccc5c4OCC5O)n[nH]c3c1)C(=O)N2` (stereo in doubt) [Example 27, 2-{3-[(3-hydroxy-2,3-dihydro-1-benzofuran-7-yl)amino]-1H-indazol-6-yl)-5′-methoxyspiro[cyclopropane-1,3′-indol]-2′(1′H)-one], for which the IC50 on human recombinant PLK4 came to 2.08 nM. Same read-out and setting: for `COc1ccc2c(c1)[C@]1(C[C@H]1c1ccc3c(Nc4cccc5c4OC[C@H]5O)n[nH]c3c1)C(=O)N2` (stereo in doubt) [Example 28] the value was 0.375 nM. For the compound `COc1ccc2c(c1)[C@]1(C[C@H]1c1ccc3c(Nc4ncncc4OC)n[nH]c3c1)C(=O)N2` [Example 4, (1R,2S)-5′-Methoxy-2-{3-[(5-methoxypyrimidin-4-yl)amino]-1H-indazol-6-yl}spiro[cyclopropane-1,3′-indol]-2′(1′H)-one], the IC50 at human recombinant PLK4 came to 3.96 nM. Moreover, the “[Aurora A IC50 (nM)]/[PLK4 IC50 (nM)]” value in assay [1] was determined as 465.4867. Moreover, in assay [2], the “[Aurora B IC50 (nM)]/[PLK4 IC50 (nM)]” value stood at 11.45. `CCOc1cncnc1Nc1n[nH]c2cc([C@@H]3C[C@@]34C(=O)Nc3ccc(OC)cc34)ccc12` [Example 5, (1R,2S)-2-[3-[(5-ethoxypyrimidin-4-yl)amino]-1H-indazol-6-yl]-5′-methoxy-spiro[cyclopropane-1,3′-indoline]-2′-one]: on human recombinant PLK4, the IC50 amounted to 2.18 nM. Take `COc1ccc2c(c1)[C@]1(C[C@H]1c1ccc3c(Nc4ncncc4C4CC4)n[nH]c3c1)C(=O)N2` [Example 6, (1R,2S)-2-{3-[(5-cyclopropylpyrimidin-4-yl)amino]-1H-indazol-6-yl}-5′-methoxyspiro[cyclopropane-1,3′-indol]-2′(1′H)-one]: on human recombinant PLK4, the IC50 turned out to be 18.2 nM. Take `COc1ccc2c(c1)[C@]1(C[C@H]1c1ccc3c(Nc4ncncc4Cl)n[nH]c3c1)C(=O)N2` [Example 7]: the IC50 at human recombinant PLK4 worked out at 4.56 nM. In addition, in assay [1], the “[Aurora A IC50 (nM)]/[PLK4 IC50 (nM)]” value is reported as 693.5732. The “[Aurora B IC50 (nM)]/[PLK4 IC50 (nM)]” value in assay [2] is 47.27.

As to `COc1ccc2c(c1)[C@@]1(C[C@@H]1c1ccc3c(Nc4ncncc4OC)n[nH]c3c1)C(=O)N2` [Example 8, (IS,2R)-5′-Methoxy-2-{3-[(5-methoxypyrimidin-4-yl)amino]-1H-indazol-6-yl}spiro[cyclopropane-1,3′-indol]-2′(1′H)-one], the IC50 at human recombinant PLK4 amounted to 492 nM. For the same compound, the “[Aurora A IC50 (nM)]/[PLK4 IC50 (nM)]” value in assay [1] stood at 17.61. Also, the “[Aurora B IC50 (nM)]/[PLK4 IC50 (nM)]” value in assay [2] is recorded as 32.99.

As to `COc1ccc2c(c1)[C@]1(C[C@H]1c1ccc3c(Nc4nccnc4OC)n[nH]c3c1)C(=O)N2` [Example 13, (1R,2S)-5′-methoxy-2-{3-[(3-methoxypyrazin-2-yl)amino)-1H-indazol-6-yl}spiro[cyclopropane-1,3′-indol]-2′(1′H)-one], the IC50 on human recombinant PLK4 is 2.99 nM. In addition, in assay [1], the “[Aurora A IC50 (nM)]/[PLK4 IC50 (nM)]” value was 667.5585. In addition, the “[Aurora B IC50 (nM)]/[PLK4 IC50 (nM)]” value in assay [2] is reported as 10.3. In the case of `COc1ccc2c(c1)[C@]1(C[C@H]1c1ccc3c(Nc4ncnc5c4CCC5)n[nH]c3c1)C(=O)N2` [Example 15, (1R,2S)-2-{3-[(6,7-dihydro-5H-cyclopenta[d]pyrimidin-4-yl)amino]-1H-indazol-6-yl}-5′-methoxyspiro[cyclopropane-1,3′-indol]-2′(1′H)-one], the IC50 at human recombinant PLK4 stood at 45.7 nM.

With `COc1ccc2c(c1)[C@]1(C[C@H]1c1ccc3c(Nc4cnccc4OC)n[nH]c3c1)C(=O)N2` [Example 18], the IC50 on human recombinant PLK4 came to 22.9 nM. Consider `COc1ccc2c(c1)[C@]1(C[C@H]1c1ccc3c(Nc4ccncc4OC)n[nH]c3c1)C(=O)N2` [Example 19, (1R,2S)-5′-methoxy-2-{3-[(3-methoxypyridin-4-yl)amino]-1H-indazol-6-yl}spiro[cyclopropane-1,3′-indol]-2′(1′H)-one], for which the IC50 on human recombinant PLK4 was determined as 24.8 nM.

On to `COc1ccc2c(c1)[C@]1(C[C@H]1c1ccc3c(Nc4c(C)nn(C)c4C)n[nH]c3c1)C(=O)N2` [Example 21, (1R,2S)-5′-methoxy-2-{3-[(1,3,5-trimethyl-1H-pyrazol-4-yl)amino]-1H-indazol-6-yl)spiro[cyclopropane-1,3′-indol]-2′(1′H)-one], for which the 50% inhibitory concentration (IC50) at human recombinant PLK4 was found to be 41.7 nM. In the case of `COc1ccc2c(c1)[C@]1(C[C@H]1c1ccc3c(Nc4ncncc4C(F)(F)F)n[nH]c3c1)C(=O)N2` [Example 22, (1R,2S)-5′-methoxy-2-(3-{[5-(trifluoromethyl)pyrimidin-4-yl]amino}-1H-indazol-6-yl)spiro[cyclopropane-1,3′-indol]-2′(1′H)-one], the IC50 at human recombinant PLK4 was 39.8 nM. Same read-out and setting: to `COc1ccc2c(c1)[C@]1(C[C@H]1c1ccc3c(Nc4cccnc4OC)n[nH]c3c1)C(=O)N2` [Example 24] belongs 2.25 nM. For the compound `COc1ccc2c(c1)[C@]1(C[C@H]1c1ccc3c(Nc4cccc5ccoc45)n[nH]c3c1)C(=O)N2` [Example 26], the IC50 on human recombinant PLK4 turned out to be 3.85 nM. On the same count and under the same terms, for `COc1ccc2c(c1)[C@]1(C[C@H]1c1ccc3c(Nc4cccc5c4OC[C@@H]5O)n[nH]c3c1)C(=O)N2` [Example 29, (1R,2S)-2-(3-{[(3R)-3-hydroxy-2,3-dihydro-1-benzofuran-7-yl]amino)-1H-indazol-6-yl)-5′-methoxyspiro[cyclopropane-1,3′-indol]-2′(1′H)-one] the value was 5.97 nM.
